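These data come from cells grown in 96-well plates and exposed to compound for 48 hours at five concentrations. Definition used: TGI = concentration required for complete inhibition of growth.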
What was measured:
Experiment in all cases: inhibition of tumour cell growth, NCI panel, 48 h
[1] = tested on: 786-0 renal
[2] = tested on: A498 renal
[3] = tested on: A549 NSCLC
[4] = tested on: ACHN renal
[5] = tested on: CCRF-CEM leukemia
[6] = tested on: DU-145 prostate
[7] = tested on: EKVX NSCLC
[8] = tested on: HCC-2998 colon
[9] = tested on: HCT-116 colon
[10] = tested on: HCT-15 colon
[11] = tested on: HL-60(TB) leukemia
[12] = tested on: HOP-62 NSCLC
[13] = tested on: HOP-92 NSCLC
[14] = tested on: HS 578T breast
[15] = tested on: HT29 colon
[16] = tested on: IGROV1 ovarian
[17] = tested on: K-562 leukemia
[18] = tested on: LOX IMVI melanoma
[19] = tested on: M14 melanoma
[20] = tested on: MALME-3M melanoma
[21] = tested on: MCF7 breast
[22] = tested on: MDA-MB-435
[23] = tested on: MDA-N
[24] = tested on: MOLT-4 leukemia
[25] = tested on: NCI-H226 lung
[26] = tested on: NCI-H23 lung
[27] = tested on: NCI-H460 lung
[28] = tested on: NCI-H522 lung
[29] = tested on: NCI/ADR-RES ovarian
[30] = tested on: OVCAR-3 ovarian
[31] = tested on: OVCAR-4 ovarian
[32] = tested on: OVCAR-5 ovarian
[33] = tested on: OVCAR-8 ovarian
[34] = tested on: PC-3 prostate
[35] = tested on: RPMI-8226 leukemia
[36] = tested on: RXF 393 renal
[37] = tested on: SF-268 CNS
[38] = tested on: SF-295 CNS
[39] = tested on: SF-539 CNS
[40] = tested on: SK-MEL-28 melanoma
[41] = tested on: SK-MEL-5 melanoma
[42] = tested on: SN12C renal
[43] = tested on: SNB-19 CNS
[44] = tested on: SNB-75 CNS
[45] = tested on: SR leukemia
[46] = tested on: SW-620 colon
[47] = tested on: T-47D breast
[48] = tested on: TK-10 renal
[49] = tested on: U251 CNS
[50] = tested on: UACC-257 melanoma
[51] = tested on: CAKI-1 renal
[52] = tested on: COLO 205 colon
[53] = tested on: KM12 colon
[54] = tested on: MDA-MB-231 breast
[55] = tested on: SK-OV-3 ovarian
[56] = tested on: UACC-62 melanoma
[57] = tested on: UO-31 renal

SMILES: C[N+](C)(C)C1(C(=O)[O-])CC1
- TGI [1]: > 100 µM
- TGI [2]: > 100 µM
- TGI [3]: > 100 µM
- TGI [4]: > 100 µM
- TGI [5]: > 100 µM
- TGI [6]: > 100 µM
- TGI [7]: > 100 µM
- TGI [8]: > 100 µM
- TGI [9]: > 100 µM
- TGI [10]: > 100 µM
- TGI [11]: > 100 µM
- TGI [12]: > 100 µM
- TGI [13]: > 100 µM
- TGI [14]: > 100 µM
- TGI [15]: > 100 µM
- TGI [16]: > 100 µM
- TGI [17]: > 100 µM
- TGI [18]: > 100 µM
- TGI [19]: > 100 µM
- TGI [20]: > 100 µM
- TGI [21]: > 100 µM
- TGI [22]: > 100 µM
- TGI [23]: > 100 µM
- TGI [24]: > 100 µM
- TGI [25]: > 100 µM
- TGI [26]: > 100 µM
- TGI [27]: > 100 µM
- TGI [28]: > 100 µM
- TGI [29]: > 100 µM
- TGI [30]: > 100 µM
- TGI [31]: > 100 µM
- TGI [32]: > 100 µM
- TGI [33]: > 100 µM
- TGI [34]: > 100 µM
- TGI [35]: > 100 µM
- TGI [36]: > 100 µM
- TGI [37]: > 100 µM
- TGI [38]: > 100 µM
- TGI [39]: > 100 µM
- TGI [40]: > 100 µM
- TGI [41]: > 100 µM
- TGI [42]: > 100 µM
- TGI [43]: > 100 µM
- TGI [44]: > 100 µM
- TGI [45]: > 100 µM
- TGI [46]: > 100 µM
- TGI [47]: > 100 µM
- TGI [48]: > 100 µM
- TGI [49]: > 100 µM
- TGI [50]: > 100 µM

SMILES: CCN(CC)CCNc1ccc2ncn3c4c(OC)cccc4c(=O)c1c23
- TGI [1]: 75 µM
- TGI [2]: 33.4 µM
- TGI [3]: 27.6 µM
- TGI [4]: 25.2 µM
- TGI [51]: > 100 µM
- TGI [5]: 17.3 µM
- TGI [52]: 16.5 µM
- TGI [6]: 24.2 µM
- TGI [7]: 17.7 µM
- TGI [8]: 18.6 µM
- TGI [9]: 10.1 µM
- TGI [10]: 19.2 µM
- TGI [12]: 98 µM
- TGI [13]: 18.4 µM
- TGI [14]: 30.5 µM
- TGI [15]: 36.1 µM
- TGI [16]: 34.7 µM
- TGI [17]: 23.3 µM
- TGI [53]: 17.4 µM
- TGI [19]: 20.9 µM
- TGI [20]: 21.4 µM
- TGI [54]: 25.6 µM
- TGI [22]: 20.7 µM
- TGI [23]: 17.1 µM
- TGI [25]: 20.8 µM
- TGI [26]: 24.5 µM
- TGI [27]: 15.2 µM
- TGI [28]: 20.7 µM
- TGI [30]: 50.9 µM
- TGI [31]: 15.4 µM
- TGI [33]: 55.6 µM
- TGI [34]: 17.6 µM
- TGI [36]: 11.6 µM
- TGI [37]: 17.6 µM
- TGI [38]: 25.1 µM
- TGI [39]: 22.8 µM
- TGI [40]: 21.7 µM
- TGI [41]: 13.3 µM
- TGI [55]: 24 µM
- TGI [42]: 17.7 µM
- TGI [43]: 46.3 µM
- TGI [44]: 24.5 µM
- TGI [45]: 20.8 µM
- TGI [46]: 15.9 µM
- TGI [47]: > 100 µM
- TGI [48]: 77.7 µM
- TGI [49]: 19.3 µM
- TGI [50]: 69.2 µM
- TGI [56]: 25.3 µM
- TGI [57]: 17.5 µM

Reference: PubChem BioAssay (NCI)
